Tests used:
[1] = test system: recombinant β-galactoside-α2,6-sialyltransferase N1C0; assay: Glycosyl acceptor substrate specificity, monosaccharides and disaccharides; type: biochemical, Photobacterium leiognathi; conditions: for transfer of sialic acid to acceptor substrate: 11 monosaccharides and disaccharides tested; for % (nmol), relative activity toward acceptor substrate: sialyltransferase activity toward lactose set to 100
Text: The purified enzyme prepared in Example 3 for JT-SHIZ-145-derived recombinant β-galactoside-α2,6-sialyltransferase N1C0 (SEQ ID NO: 4) was used to cause sialic acid transfer reaction in various monosaccharides/disaccharides as glycosyl acceptor substrates. The reaction was accomplished as described in J. Biochem., 120, 104-110 (1996). The monosaccharides used as glycosyl acceptor substrates were the following 8 types: methyl-α-D-galactopyranoside (Gal-α-OMe), methyl-β-D-galactopyranoside (Gal-β-OMe), methyl-α-D-glucopyranoside (Glc-α-OMe), methyl-β-D-glucopyranoside (Glc-β-OMe), methyl-α-D-mannopyranoside (Man-α-OMe), methyl-β-D-mannopyranoside (Man-β-OMe), N-acetylgalactosamine (GalNAc), and N-acetylglucosamine (GlcNAc). The disaccharides used were the following 3 types: lactose (Gal-β1,4-Glc), N-acetyllactosamine (Gal-β1,4-GlcNAc) and Gal-β1,3-GalNAc.
It should be noted that the relative activity toward each acceptor substrate was calculated assuming that the sialyltransferase activity toward lactose was set to 100.

[2] = test system: recombinant β-galactoside-α2,6-sialyltransferase N1C0; assay: Effect of addition of various salts (complex ions, Na+/K+) on enzyme activity; type: biochemical, Photobacterium leiognathi; conditions: anion concentration 0.1 M in Tris-HCl, 30° C.; compared to absence of addition
Procedure: Aqueous solutions were prepared for potassium nitrate (KNO3), sodium nitrate (NaNO3), potassium sulfate (K2SO4), sodium sulfate (Na2SO4), sodium dihydrogen phosphate (NaH2PO4), disodium hydrogen phosphate (Na2HPO4) and potassium phosphate (KH2PO4+K2HPO4 (abbreviated as KPB)). These aqueous solutions were each adjusted with Tris-HCl buffer to give an anion concentration of 0.1 M in the reaction solution at 30° C., and used for enzyme activity measurement.
It should be noted that enzyme activity in the reaction solution upon addition of each solution was evaluated as relative activity, assuming that the enzyme activity in the absence of addition (i.e., in Tris-HCl alone) was set to 1.

[3] = test system: recombinant β-galactoside-α2,6-sialyltransferase N1C0
Procedure: Using a crude enzyme solution, enzyme activity was measured in a reaction solution adjusted to contain calcium chloride and/or EDTA at a final concentration of 10 mM for calcium ion and 50 mM for EDTA.

[4] = test system: β-galactoside-α2,6-sialyltransferase from the strain JT-SHIZ-145; assay: Sialyltransferase activity measurement of crude enzyme solution from E. coli transformed with SHIZ145-N1C0/pTrc99A (14C CMP-NeuAc donor, lactose acceptor); type: biochemical, Photobacterium leiognathi; conditions: insert +, 120 mM lactose, 0.5 M NaCl, 30° C. for 30 minutes
Procedure: Among the two expression vectors obtained above, SHIZ145-N1C0/pTrc99A was used to perform an induction experiment of protein expression. A single colony of E. coli TB1 having the expression vector pTrc99A carrying the SHIZ145-N1C0 clone (SEQ ID NO: 3) was inoculated into LB medium (6 ml) containing an antibiotic, ampicillin (final concentration […]), and pre-cultured at 30° C. to about A600=0.5, followed by addition of IPTG (isopropyl-β-D(−)-thiogalactopyranoside, Wako Pure Chemical Industries, Ltd., Japan) at a final concentration of 1 mM to initiate expression induction. After culturing overnight with shaking at 30° C., the cells in 2 ml culture solution were collected by centrifugation. These cells were suspended in 400 μl of 20 mM Bis-Tris buffer (pH 6.0) containing 0.336% Triton X-100, and ultrasonically homogenized under ice cooling. The resulting homogenate was defined as a crude enzyme solution and provided for sialyltransferase activity measurement. Measurement was accomplished as described in J. Biochem., 120, 104-110 (1996) (hereby incorporated by reference in its entirety). […] Radioactivity was measured for the reaction product, i.e., sialyllactose contained in the eluate from the column to calculate the enzyme activity.

[5] = test system: β-galactoside-α2,6-sialyltransferase; assay: Binding mode of sialic acid: reaction with PA-lactose and CMP-NeuAc, HPLC analysis; type: biochemical, Photobacterium leiognathi; conditions: pyridylaminated lactose as glycosyl acceptor
Procedure: To determine the binding mode of sialic acid, a reaction using PA-lactose as a substrate was then performed. The enzymatic reaction was accomplished by using the resulting crude enzyme solution and a pyridylaminated sugar chain as a glycosyl acceptor substrate. The pyridylaminated sugar chain used for analysis was pyridylaminated lactose (Galβ1-4Glc-PA, Takara Bio Inc., Japan). To 5 μl of the crude enzyme solution, 1.5 μl of 5 mM CMP-NeuAc and 1.5 μl of 10 pmol/μl glycosyl acceptor substrate were added and reacted at 25° C. for 18 hours. After completion of the reaction, the reaction solution was treated at 100° C. for 2 minutes to inactivate the enzyme, followed by HPLC to analyze the reaction product. The HPLC system used was Shimadzu LC10A (Shimadzu Corporation, Japan) and the analytical column used was Takara PALPAK Type R (Takara Bio Inc., Japan). […] The analysis was performed under the following conditions: flow rate: 1 ml/min, column temperature: 40° C., detection: fluorescence (Ex: 320 nm, Em: 400 nm).
Further analysis was performed to examine whether sialyltransferase expressed by E. coli cells transformed in (5) above with SHIZ145-N1C0/pTrc99A had β-galactoside-α2,6-sialyltransferase activity. […] As a result, PA-6′-sialyllactose (Neu5Acα2-6Galβ1-4Glc-PA) was detected, as in the case of Example 1.

[6] = test system: recombinant β-galactoside-α2,6-sialyltransferase N1C0; assay: Optimum temperature for enzyme activity; type: biochemical, Photobacterium leiognathi; conditions: phosphate buffer (pH 8.0), 10° C. up to 50° C.
Procedure: The enzyme activity was measured at an interval of 5° C. starting from 10° C. up to 50° C. using phosphate buffer (pH 8.0).
As a result, as shown in FIG. 2-2, the enzyme activity was maximum at 30° C. It should be noted that enzyme activity at each temperature was evaluated as relative activity, assuming that the enzyme activity at 30° C. was set to 100.

[7] = test system: recombinant β-galactoside-α2,6-sialyltransferase N1C0; assay: Optimum pH for enzyme activity; type: biochemical, Photobacterium leiognathi; conditions: phosphate buffer, 30° C.
Procedure: Acetate buffer (pH 4-5), cacodylate buffer (pH 5-6), Bis-Tris buffer (pH 6-7), phosphate buffer (pH 6-9.5), Tris-HCl buffer (pH 7-9.5), TAPS buffer (pH 8-9), CHES buffer (pH 9-10) and CAPS buffer (pH 10-11) were prepared and used for enzyme activity measurement at 30° C. at various pH values.
It should be noted that enzyme activity at each pH was evaluated as relative activity, assuming that the enzyme activity at pH 8.0 in phosphate buffer was set to 1.

OC[C@H]1O[C@@H](O[C@H]2[C@H](O)[C@@H](O)C(O)O[C@@H]2CO)[C@H](O)[C@@H](O)[C@H]1O (stereo partly drawn) [Gal-β1,4-Glc, lactose]
transfer of sialic acid to acceptor substrate [1]: efficiently transferred
% (nmol), relative activity toward acceptor substrate [1]: 100%

CO[C@H]1O[C@H](CO)[C@@H](O)[C@H](O)[C@H]1O [Glc-α-OMe, methyl-α-D-glucopyranoside]
% (nmol), relative activity toward acceptor substrate [1]: 0%

CO[C@H]1O[C@H](CO)[C@@H](O)[C@H](O)[C@@H]1O [Man-α-OMe, methyl-α-D-mannopyranoside]
% (nmol), relative activity toward acceptor substrate [1]: 0%

CC(=O)N[C@H]1C(O)O[C@H](CO)[C@H](O)[C@@H]1O (stereo partly drawn) [GalNAc, N-acetylgalactosamine]
transfer of sialic acid to acceptor substrate [1]: efficiently transferred
% (nmol), relative activity toward acceptor substrate [1]: 35%

O=P([O-])([O-])O.[Na+].[Na+] [disodium hydrogen phosphate]
effect of addition on enzyme activity [2]: maximum

CO[C@@H]1O[C@H](CO)[C@H](O)[C@H](O)[C@H]1O [Gal-β-OMe, methyl-β-D-galactopyranoside]
transfer of sialic acid to acceptor substrate [1]: efficiently transferred
% (nmol), relative activity toward acceptor substrate [1]: 59%

CO[C@@H]1O[C@H](CO)[C@@H](O)[C@H](O)[C@H]1O [Glc-β-OMe, methyl-β-D-glucopyranoside]
% (nmol), relative activity toward acceptor substrate [1]: 0%

potassium phosphate (KH2PO4+K2HPO4 (abbreviated as KPB)) [potassium phosphate (KPB)]
effect of addition on enzyme activity [2]: maximum

CO[C@H]1O[C@H](CO)[C@H](O)[C@H](O)[C@H]1O [Gal-α-OMe, methyl-α-D-galactopyranoside]
% (nmol), relative activity toward acceptor substrate [1]: 2%

[Ca+2].[Cl-].[Cl-] [calcium ion, calcium chloride]
enzyme activity with calcium ion together with EDTA ([3]; 10 mM calcium ion and 50 mM EDTA): almost the same level as in the absence of calcium ion
enzyme activity in the presence of calcium ion ([3]; 10 mM calcium ion, compared to absence of calcium ion): remarkably increased

CO[C@@H]1O[C@H](CO)[C@@H](O)[C@H](O)[C@@H]1O [Man-β-OMe, methyl-β-D-mannopyranoside]
% (nmol), relative activity toward acceptor substrate [1]: 0%

CC(=O)N[C@H]1C(O)O[C@H](CO)[C@H](O)[C@@H]1O[C@@H]1O[C@H](CO)[C@H](O)[C@H](O)[C@H]1O (stereo partly drawn) [Gal-β1,3-GalNAc]
transfer of sialic acid to acceptor substrate [1]: efficiently transferred
% (nmol), relative activity toward acceptor substrate [1]: 71%

CC(=O)N[C@H]1C(O)O[C@H](CO)[C@@H](O)[C@@H]1O (stereo partly drawn) [GlcNAc, N-acetylglucosamine]
% (nmol), relative activity toward acceptor substrate [1]: 6%

CC(=O)N[C@H]1C(O)O[C@H](CO)[C@@H](O[C@@H]2O[C@H](CO)[C@H](O)[C@H](O)[C@H]2O)[C@@H]1O (stereo partly drawn) [Gal-β1,4-GlcNAc, N-acetyllactosamine]
transfer of sialic acid to acceptor substrate [1]: efficiently transferred
% (nmol), relative activity toward acceptor substrate [1]: 205%

B1: SHIZ145-N1C0: β-galactoside-α2,6-sialyltransferase from strain JT-SHIZ-145 lacking the amino acids of the signal peptide region, expressed in E. coli (protein)
chain: MCNDNQNTVDVVVSTVNDNVIENNTYQVKPIDTPTTFDSYSWIQTCGTPILKDDEKYSLSFDFVAPELDQDEKFCFEFTGDVDGKRYVTQTNLTVVAPTLEVYVDHASLPSLQQLMKIIQQKNEYSQNERFISWGRIRLTEDNAEKLNAHIYPLAGNNTSQELVDAVIDYADSKNRLNLELNTNTGHSFRNIAPILRATSSKNNILISNINLYDDGSAEYVSLYNWKDTDNKSQKLSDSFLVLKDYLNGISSEKPNGIYSIYNWHQLYHSSYYFLRKDYLTVETKLHDLREYLGGSLKQMSWDTFSQLSKGDKELFLNIVGFDQEKLQQEYQQSELPNFVFTGTTTWAGGETKEYYAQQQVNVVNNAINETSPYYLGREHDLFFKGHPRGGIINDIILGSFNNMIDIPAKVSFEVLMMTGMLPDTVGGIASSLYFSIPAEKVSFIVFTSSDTITDREDALKSPLVQVMMTLGIVKEKDVLFWC
NeuAc transferred (cpm) [4]: 8326 cpm
PA-6′-sialyllactose (Neu5Acα2-6Galβ1-4Glc-PA) product [5]: detected
temperature at which the enzyme activity was maximum [6]: 30 °C
pH at which the enzyme activity reached maximum [7]: 8.0

— patent publication US8372617B2, “β-galactoside-α2,6-sialyltransferase, a gene encoding thereof, and a method for enhancing enzyme activity” (Japan Tobacco Inc., priority 2007, dated 2013)
